The record followed here is patent US20090130223A1, “COSMETIC PREPARATION WITH AQUAPORIN STIMULATORS AND THE USE THEREOF” (priority 2006, published 2009).

This test relates to aquaporin-3 mRNA in human keratinocytes. As to the kind of experiment: AQP-3 mRNA expression in human keratinocytes by quantitative RT-PCR. The format is cell-based. Conditions: 24 h, 3% w/v glycerol glucoside in culture medium (450 mOsm), compared with 1% w/v glycerin, 2.25% w/v glucose, and 1.5% w/v glycerol glucoside + 0.5% w/v glycerin. The method, then: To this end, human keratinocytes were treated in triplicate in cell culture (37° C., Medium Cambrex No. CC-3158 incl. Supplement kit No. CC-4152; +0.1 mM CaCl2) for 24 h as follows: • Untreated control (corresponds to 330 mOsm, isomolar culture medium) • Addition of 1% w/v glycerin to the culture medium (corresponds to 450 mOsm, osmotic stress) • Addition of 1.5% w/v glycerol glucoside and 0.5% w/v glycerin to the culture medium (corresponds to 450 mOsm osmotic stress, mixture ratio regarding number of particles 1:1) • Addition of 3% w/v glycerol glucoside to the culture medium (corresponds to 450 mOsm, osmotic stress) • Addition of 2.25% w/v glucose to the culture medium (corresponds to 450 mOsm, osmotic stress)
The different amounts used are due to the different molecular weights of the substances. The contribution to the increase in osmolarity in the culture medium depends solely on the added particle number, and this is the same in all of the tests.
After harvest and lysis the entire RNA was isolated from the cells and the aquaporin-3 mRNA relatively contained was determined by means of quantitative RT-PCR.
The concentration indication w/v means mass per volume, wherein 1.0% w/v corresponds to one gram substance in 100 ml solution.

On to Glyceryl glucoside, for which the “expression level of the aquaporin-3 mRNA relativized on 18S rRNA (stimulating effect)” value was “better stimulating effect than classic glycerin or glucose alone or a 1:1 mixture of glycerin and glyceryl glucoside”.
